# In US20040028609A1, “Two-dimensionally quantified image method for distinguishing and quantifying over-growing tissue or the like” (priority 2000, published 2004):
# Where two headings read alike, the source gives them in different places.
# Columns and labels:
# [1] = BALB/c, mouse, in vivo
# Method: The back of BALB/c nude mice was inoculated with a 10^7 Hu09 cells (human osteosarcoma) grown in culture. 3 weeks later, animals with granulation tissue with a collagen layer were submitted for the experiment. […] 50 μm thick whole body sections cut longitudinally were prepared using a Leica Macrocut. The sections were stored in a sealed container and lyophilized. The dried sections in contact with a Fuji imaging plate were exposed in a dark box, and the IP was then processed with the Fuji BAS2000 analyzer to generate a digital image (FIG. 1).
# The specimen was then placed in contact with IP, and 16 hours later the data was converted into a computer image for analysis.
# [2] = test system: jejunum, basal layer of the intestinal mucosa; experiment: [2-^14C] thymidine injected into exposed jejunum, semi-microautoradiograph; type: in vivo, Wistar rat; settings: 5 μCi injected into exposed jejunum, 5 minutes
# Method: The specimen used was the jejunum from a healthy 7-week old Wistar rat, male. Under ethyl ether anesthesia, the abdomen was opened to expose the jejunum, which was marked with methylene blue. […] Frozen sections were prepared with a microtome, and a semi-microautoradiographs were obtained.
# [3] = test system: excised jejunum, basal layer of the intestinal tract mucosa; experiment: [2-^14C] thymidine incorporation in excised, cultured jejunum (in vitro system); type: cell-based, Wistar rat; settings: 5 μCi injected into excised jejunum, cultured 10 minutes at 37° C.
# Method: Next, the jejunum of a healthy Wistar male rat at seven weeks of age was used. The part of the abdomen was opened under ethyl ether anesthesia, and the jejunum of about 2-4 cm in length was excised. […] Then, the specimen was immediately frozen in liquid nitrogen and sectioned using a microtome to obtain frozen sections. Semi-microautoradiographs were prepared from these sections.
# [4] = Fate of intravenously administered [2-^14C] thymidine in rats; type: in vivo; settings: intravenous
# Method: Extensive studies by the present inventors led to the discovery that when “thymidine” is intravenously administered to rats, the thymidine administered is utilized only in the S phase of the cell cycle, and more precisely, within 3 minutes after the administration of the thymidine. This observation is based on the findings obtained using a “thymidine” with the “2” carbon position within its structure labeled with ^14C and tracking the fate of the administered thymidine. It was discovered that thymidine not incorporated during the cell division is rapidly metabolized in the liver, leucocytes, and the like and mostly excreted out of the body as carbon dioxide gas. Based on these findings, the present inventors discovered that a thymidine with “2” carbon position labeled with ^14C is an extremely important marker for specifying the frequency of dividing cells in vivo and for localizing its site(s) within the body. It was also discovered that a (1,3-N) thymidine, obtained by attaching a fluorescent compound to the nitrogen atoms at 1,3-positions of the thymidine, can also be used as the labeled thymidine.
# [5] = test system: bone marrow (B); settings: for effect of ^90Y radiation on [2-^14C] thymidine incorporation (suppression of mitosis), B: bone marrow
# Method: (§1) ^90YCl at the three levels, 0.5 μCi (18.5 kBq), 2 μCi (74 kBq) or 10 μCi (370 kBq), was injected intravenously into the tail of male BALB/c mice in groups of 6 mice per group (a total of 18 mice). […] The animals were sacrificed one hour later under ether anesthesia, and the macroautoradiographs were prepared as described in Example 1. […] FIG. 12 is a microautoradiograph of the bone marrow, showing the bone marrow from a mouse sacrificed 1 hour after [2-^14C] was administered, which was 48 hours after the ^90Y administration.
# (§2) On the sections were placed five sheets of 10 μm thick aluminum foil, and this was brought into contact with IP to generate only the ^90Y image. […] If the image of the two radiation nuclides is to be obtained simultaneously, one can place an industrial X-ray film in contact with said section, followed by five sheets of aluminum foil, and then the IP; these are then stored in a dark box. After about 7 days, the X-ray film is taken out and photographically processed by the usual method to produce the image, while the IP is processed by Fuji BAS2000 for computer processing of the images. This method provides ^14C image on the industrial X-ray film. This method also gives a ^90Y image on the IP.
# [6] = test system: digestive tract mucosa (m)
# Method: as §1, §2
# [7] = test system: tumor (T); experiment: Effect of ^90Y radiation on mitosis, [2-^14C] thymidine incorporation as marker of DNA replication (macroautoradiography): tumor; type: in vivo, BALB/c mice; further: key: −: no effect; ±: Slight inhibition; +: Decrease in function; ++: Definite decrease in function; +++: No incorporation of ^14C marker in DNA replication
# [8] = Method: After administration of the aforementioned ^90Y into the mouse tail vein the systemic distribution was studied by the following experiments. The animals used were those obtained from the source as used for the BALB/c (body weight 25 g) described in Examples 1 and 2 above. After administration of an aqueous 0.5 μCi (18.5 kBq) ^90YCl citrate solution per male mouse in the tail vein, analysis was conducted over time at 5 time points: at 10 minutes, 1, 6, 24, and 48 hours. The animals were sacrificed under an ether anesthesia, and the whole body autoradiographs were prepared using with the same procedure as that used in Example 1 and Example 2 (FIGS. 7, 8, 9, 10, 11).
# [9] = 0.5 μCi ^90Y i.v., 1 hr after ^90Y
# [10] = 0.5 μCi ^90Y i.v., 6 hr after ^90Y
# [11] = 0.5 μCi ^90Y i.v., 24 hr after ^90Y
# [12] = 0.5 μCi ^90Y i.v., 48 hr after ^90Y
# [13] = 0.5 μCi ^90Y i.v., 72 hr after ^90Y
# [14] = 0.5 μCi ^90Y i.v., 168 hr after ^90Y
# [15] = 2 μCi ^90Y i.v., 1 hr after ^90Y
# [16] = 2 μCi ^90Y i.v., 6 hr after ^90Y
# [17] = 2 μCi ^90Y i.v., 24 hr after ^90Y
# [18] = 2 μCi ^90Y i.v., 48 hr after ^90Y
# [19] = 2 μCi ^90Y i.v., 72 hr after ^90Y
# [20] = 2 μCi ^90Y i.v., 168 hr after ^90Y
# [21] = 10 μCi ^90Y i.v., 1 hr after ^90Y
# [22] = 10 μCi ^90Y i.v., 6 hr after ^90Y
# [23] = 10 μCi ^90Y i.v., 24 hr after ^90Y
# [24] = 10 μCi ^90Y i.v., 48 hr after ^90Y
# [25] = 10 μCi ^90Y i.v., 72 hr after ^90Y
# [26] = 10 μCi ^90Y i.v., 168 hr after ^90Y
structure (smiles),measurement,setting,value
Cc1cn([C@H]2C[C@H](O)[C@@H](CO)O2)c(=O)[nH]c1=O [[2-^14C] thymidine],time to incorporation into DNA after injection,[1],less than 3 minutes
same,"time by which the ^14C component is completely excreted out of other areas, except the bone and bone marrow",[1]; iv,≤ 1 h
same,incorporation in the basal layer of the intestinal mucosa (semi-microautoradiograph),[2],darkened images were clearly recorded
same,incorporation in the basal layer of the intestinal tract mucosa (semi-microautoradiograph),[3],substantially darkened images
same,time after administration within which thymidine is utilized (S phase),[4],≤ 3 min
"[Cl][90Y]([Cl])[Cl] [^90Y, ^90YCl3]","effect of ^90Y radiation on [2-^14C] thymidine incorporation (suppression of mitosis), B",[5]; [9],−
same,"effect of ^90Y radiation on [2-^14C] thymidine incorporation (suppression of mitosis), B",[5]; [10],−
same,"effect of ^90Y radiation on [2-^14C] thymidine incorporation (suppression of mitosis), B",[5]; [11],−
same,"effect of ^90Y radiation on [2-^14C] thymidine incorporation (suppression of mitosis), B",[5]; [12],+
same,"effect of ^90Y radiation on [2-^14C] thymidine incorporation (suppression of mitosis), B",[5]; [13],+
same,"effect of ^90Y radiation on [2-^14C] thymidine incorporation (suppression of mitosis), B",[5]; [14],±
same,"effect of ^90Y radiation on [2-^14C] thymidine incorporation (suppression of mitosis), B",[5]; [15],−
same,"effect of ^90Y radiation on [2-^14C] thymidine incorporation (suppression of mitosis), B",[5]; [16],+
same,"effect of ^90Y radiation on [2-^14C] thymidine incorporation (suppression of mitosis), B",[5]; [17],++
same,"effect of ^90Y radiation on [2-^14C] thymidine incorporation (suppression of mitosis), B",[5]; [18],++
same,"effect of ^90Y radiation on [2-^14C] thymidine incorporation (suppression of mitosis), B",[5]; [19],++
same,"effect of ^90Y radiation on [2-^14C] thymidine incorporation (suppression of mitosis), B",[5]; [20],+
same,"effect of ^90Y radiation on [2-^14C] thymidine incorporation (suppression of mitosis), B",[5]; [21],±
same,"effect of ^90Y radiation on [2-^14C] thymidine incorporation (suppression of mitosis), B",[5]; [22],++
same,"effect of ^90Y radiation on [2-^14C] thymidine incorporation (suppression of mitosis), B",[5]; [23],+++
same,"effect of ^90Y radiation on [2-^14C] thymidine incorporation (suppression of mitosis), B",[5]; [24],+++
same,"effect of ^90Y radiation on [2-^14C] thymidine incorporation (suppression of mitosis), B",[5]; [25],+++
same,"effect of ^90Y radiation on [2-^14C] thymidine incorporation (suppression of mitosis), B",[5]; [26],+++
same,level that showed cytotoxic effects near the sites of ^90Y deposition,[5]; bone / bone marrow,about 5 μCi/25 g
same,activity of the lymphocytes in the bone marrow to degrade [2-^14C] thymidine,"[5]; first group, 0.5 μCi administration",only a slight decrease
same,"effect of ^90Y radiation on [2-^14C] thymidine incorporation (suppression of mitosis), m",[6]; [9],−
same,"effect of ^90Y radiation on [2-^14C] thymidine incorporation (suppression of mitosis), m",[6]; [10],−
same,"effect of ^90Y radiation on [2-^14C] thymidine incorporation (suppression of mitosis), m",[6]; [11],−
same,"effect of ^90Y radiation on [2-^14C] thymidine incorporation (suppression of mitosis), m",[6]; [12],−
same,"effect of ^90Y radiation on [2-^14C] thymidine incorporation (suppression of mitosis), m",[6]; [13],−
same,"effect of ^90Y radiation on [2-^14C] thymidine incorporation (suppression of mitosis), m",[6]; [14],−
same,"effect of ^90Y radiation on [2-^14C] thymidine incorporation (suppression of mitosis), m",[6]; [15],−
same,"effect of ^90Y radiation on [2-^14C] thymidine incorporation (suppression of mitosis), m",[6]; [16],−
same,"effect of ^90Y radiation on [2-^14C] thymidine incorporation (suppression of mitosis), m",[6]; [17],−
same,"effect of ^90Y radiation on [2-^14C] thymidine incorporation (suppression of mitosis), m",[6]; [18],−
same,"effect of ^90Y radiation on [2-^14C] thymidine incorporation (suppression of mitosis), m",[6]; [19],−
same,"effect of ^90Y radiation on [2-^14C] thymidine incorporation (suppression of mitosis), m",[6]; [20],−
same,"effect of ^90Y radiation on [2-^14C] thymidine incorporation (suppression of mitosis), m",[6]; [21],−
same,"effect of ^90Y radiation on [2-^14C] thymidine incorporation (suppression of mitosis), m",[6]; [22],−
same,"effect of ^90Y radiation on [2-^14C] thymidine incorporation (suppression of mitosis), m",[6]; [23],−
same,"effect of ^90Y radiation on [2-^14C] thymidine incorporation (suppression of mitosis), m",[6]; [24],−
same,"effect of ^90Y radiation on [2-^14C] thymidine incorporation (suppression of mitosis), m",[6]; [25],−
same,"effect of ^90Y radiation on [2-^14C] thymidine incorporation (suppression of mitosis), m",[6]; [26],−
same,"effect of ^90Y radiation on [2-^14C] thymidine incorporation (suppression of mitosis), T",[7]; [9],−
same,"effect of ^90Y radiation on [2-^14C] thymidine incorporation (suppression of mitosis), T",[7]; [10],−
same,"effect of ^90Y radiation on [2-^14C] thymidine incorporation (suppression of mitosis), T",[7]; [11],−
same,"effect of ^90Y radiation on [2-^14C] thymidine incorporation (suppression of mitosis), T",[7]; [12],+
same,"effect of ^90Y radiation on [2-^14C] thymidine incorporation (suppression of mitosis), T",[7]; [13],+
same,"effect of ^90Y radiation on [2-^14C] thymidine incorporation (suppression of mitosis), T",[7]; [14],±
same,"effect of ^90Y radiation on [2-^14C] thymidine incorporation (suppression of mitosis), T",[7]; [15],−
same,"effect of ^90Y radiation on [2-^14C] thymidine incorporation (suppression of mitosis), T",[7]; [16],+
same,"effect of ^90Y radiation on [2-^14C] thymidine incorporation (suppression of mitosis), T",[7]; [17],++
same,"effect of ^90Y radiation on [2-^14C] thymidine incorporation (suppression of mitosis), T",[7]; [18],++
same,"effect of ^90Y radiation on [2-^14C] thymidine incorporation (suppression of mitosis), T",[7]; [19],++
same,"effect of ^90Y radiation on [2-^14C] thymidine incorporation (suppression of mitosis), T",[7]; [20],+
same,"effect of ^90Y radiation on [2-^14C] thymidine incorporation (suppression of mitosis), T",[7]; [21],±
same,"effect of ^90Y radiation on [2-^14C] thymidine incorporation (suppression of mitosis), T",[7]; [22],++
same,"effect of ^90Y radiation on [2-^14C] thymidine incorporation (suppression of mitosis), T",[7]; [23],+++
same,"effect of ^90Y radiation on [2-^14C] thymidine incorporation (suppression of mitosis), T",[7]; [24],+++
same,"effect of ^90Y radiation on [2-^14C] thymidine incorporation (suppression of mitosis), T",[7]; [25],+++
same,"effect of ^90Y radiation on [2-^14C] thymidine incorporation (suppression of mitosis), T",[7]; [26],+++
same,"accumulation in the skeletal bones, share of the total dose","[8]; 0.5 μCi ^90YCl citrate solution, tail vein, IP images at 10 minutes to 48 hours",≥ 70%
same,"^90Y remaining in the liver, spleen, and kidney","[8]; 0.5 μCi, tail vein, 24 hours after administration",only a slight residue
same,"localization in skin, digestive tract epithelium, and vascular endothelial cells","[8]; 0.5 μCi, tail vein, image analysis",did not localize
same,^90Y image at the site of the osteosarcoma HU09,"[8]; whole body autoradiograph, compared with bones",blackened image completely equivalent to the extent seen in the bones
